Consider five molecules from patent US6716854B2, “Treatments for restless legs syndrome” (Pfizer, Inc., priority 2000, dated 2004).

The test system of data set [1] is RLS patients. To be noted: cited from earlier work.
For data set [2] the following is noted: in vivo; cited from earlier work.
For data set [3], the system named is people with RLS. To be noted: recent studies quoted from RLS Internet site; cited from earlier work.

SMILES strings stand for the structures. Structures can show the parent of a compound that is named as a salt.

Turning to `CN[C@@H]1Cc2cccc3[nH]c(=S)n(c23)C1`, the melting point fell in the range of 210 to 213 °C.

For `CN[C@@H]1Cc2cccc3[nH]c(=S)n(c23)C1.O=C(O)/C=C\C(=O)O`, the melting point lay in the range of 195 to 196 °C.

`N[C@@H](Cc1ccc(O)c(O)c1)C(=O)O` [L-dopa]: the “suppression of RLS” value in data set [1] (L-dopa 100 mg with carbidopa 10 mg, in most cases, rebound of PLMS in last part of night) was “completely suppresses RLS”. The “effect on RLS at bedtime and PLMS throughout the night” value in data set [1] (administered twice at night, PSG recordings, double-blind) was “significant reduction”.

For `CCCN1C[C@H](CSC)C[C@@H]2c3cccc4[nH]cc(c34)C[C@H]21` [Pergolide], the half-life in data set [2] was 7 to 16 h.

In the case of `CCCN1C[C@H](CSC)C[C@@H]2c3cccc4[nH]cc(c34)C[C@H]21` [Permax®, pergolide mesylate], in data set [3], the “effectiveness in treating RLS relative to Sinemet” value was “as effective as Sinemet®” and the “potential for causing augmentation” value is on record as 10%.
